These compounds were tested against benzodiazepine modulatory unit of the GABAA receptor complex (assay: In vitro inhibition of 3H-flunitrazepam (3H-FNM) binding). Details: inhibition of specific binding of 3H-FNM (1 nM), rat cerebral cortex membranes, 40 min at 2° C.
Experimental: In Vitro Inhibition of ^3H-Flunitrazepam (^3H—FNM) Binding
The GABA recognition site and the benzodiazepine modulatory unit can selectively be labelled with ^3H-flunitrazepam.
Preparations are performed at 0-4° C. unless otherwise indicated. Cerebral cortex from male Wistar rats (150-200 g) is homogenised for 5-10 sec in 20 ml Tris-HCl (30 mM, pH 7.4) using an Ultra-Turrax homogeniser. The suspension is centrifuged at 27,000×g for 15 min and the pellet is washed three times with buffer (centrifuged at 27,000×g for 10 min). The washed pellet is homogenized in 20 ml of buffer and incubated on a water bath (37° C.) for 30 min to remove endogenous GABA and then centrifuged for 10 min at 27,000×g. The pellet is then homogenized in buffer and centrifuged for 10 min at 27,000×g. The final pellet is resuspended in 30 ml buffer and the preparation is frozen and stored at −20° C.
The membrane preparation is thawed and centrifuged at 2° C. for 10 min at 27,000×g. The pellet is washed twice with 20 ml 50 mM Tris-citrate, pH 7.1 using an Ultra-Turrax homogeniser and centrifuged for 10 min at 27,000×g. The final pellet is resuspended in 50 mM Tris-citrate, pH 7.1 (500 ml buffer per g of original tissue), and then used for binding assays. Aliquots of 0.5 ml tissue are added to 25 μl of test solution and 25 μl of ^3H—FNM (1 nM, final concentration), mixed and incubated for 40 min at 2° C. Non-specific binding is determined using Clonazepam (1 μM, final concentration). After incubation the samples are added 5 ml of ice-cold buffer and poured directly onto Whatman GF/C glass fibre filters under suction and immediately washed with 5 ml ice-cold buffer. The amount of radioactivity on the filters is determined by conventional liquid scintillation counting. Specific binding is total binding minus non-specific binding.
25-75% inhibition of specific binding must be obtained, before calculation of an IC50.
The test value will be given as IC50 (the concentration (μM) of the test substance which inhibits the specific binding of ^3H—FNM by 50%).
Co is specific binding in control assays, and […]
With `COC(=O)c1cn(-c2cccc([N+](=O)[O-])c2)cn1` [Compound 20, 1-(3-Nitro-phenyl)-1H-imidazole-4-carboxylic acid methyl ester] the IC50 was 180 nM.
Compound `CCOC(=O)c1cn(-c2cccc(COCc3ccccn3)c2)cn1` [Compound 11a, 1-[3-(Pyridin-2-ylmethoxymethyl)-phenyl]-1H-imidazole-4-carboxylic acid ethyl ester] has an IC50 of 24 nM.
`CCOC(=O)c1cn(-c2cccc(Br)c2)cn1` [Compound 16, 1-(3-Bromo-phenyl)-1H-imidazole-4-carboxylic acid ethyl ester] was tested, and the IC50 was 24 nM.
